# What was measured:
# [1] = tested on: S. typhimurium TA 98; assay: Ames II mutagenicity test, TA 98; assay type: cell-based, Salmonella typhimurium
# Experimental: (§1) Ames II Mutagenicity Assay Kit BioReliance and Moltox (Moltox, Boone, NC) kit were used in the experiment and the experiment was performed completely according to the kit procedure.[68]S. typhimurium TA 98 (hisD3052) and TA mix (hisG1775, hisC9138, hisG9074, hisG9133, hisG9130, hisC9070) strains were incubated in 50 mL tubes containing 10 mL growth medium at 37 °C for 24 h. At the end of the time, the OD600 value of the suspension was measured. Since the OD600 value ≥ 2.0, the experimental procedure was continued. The dilutions of 10 μL of compound 6h at 75, 37.5, 18.75, 9.4, 4.7 μM and compound 6o at […] were prepared at 5 different concentrations of the test substances dissolved in DMSO. The exposure plates (24 wells) with and without the S9 enzyme fraction were prepared for both strains. The exposure medium, bacteria, and test substance were added to the plates without S9 enzyme fraction in the amounts specified in the procedure; S9 enzyme fraction was added to the plates containing S9 enzyme fraction and incubated at 37 °C, 250 rpm for 90 min with shaking. At the end of the incubation period, […] of purple colored indicator medium specific for bacterial strains was added to each well of the plate. 4-Nitroquinoline-N-Oxide (4-NQO) - 2-Nitrofluorene (2-NF), and 2-Aminoanthracene (2-AA) were used as positive control and only DMSO was used as negative control. The contents of 50 μL in each well were transferred to 384 plates according to the determined experimental design and incubated at 37 °C for 48 h. At the end of the incubation period, bacterial metabolism in the plates changes the pH and changes the purple color to yellow. The number of yellow wells formed at the end of the experiment was determined as positive wells and the genotoxic properties of the substances were interpreted. Means and SD values of positive wells were calculated.[69]
# [2] = tested on: S. typhimurium TA mix; assay: Ames II mutagenicity test, TA mix; assay type: cell-based, Salmonella typhimurium; details: for Average number of the positive wells: TA Mix; for mutagenicity: TA mix strain
# Experimental: as §1
# [3] = molecular target: α-Glucosidase from Saccharomyces cerevisiae; assay: α-Glycosidase inhibition assay with pNPG substrate; assay type: biochemical; details: for Ki: Lineweaver–Burk plots, read-out: α-GLY KI; for IC50: mean ± SEM, read-out: α-GLY IC50
# Experimental: α-Glucosidase activity (α-Glucosidase from Saccharomyces cerevisiae) was assessed using p-nitrophenyl-D-glycopyranoside (pNPG) as the substrate, following the procedure outlined by Tao et al.[60],[61] Initially, 100 μL of phosphate buffer was mixed with 20 μL of the enzyme solution (0.15 U/mL, pH 6.8) and 10–100 μL (0.01–1 mg/mL^–1) of the sample. To ensure complete enzyme inhibition, multiple solutions were prepared in phosphate buffer. The mixture was preincubated at 35 °C for 12 min before the reaction was initiated by adding pNPG. Subsequently, 50 μL of pNPG solution (5.0 mM, pH 7.4) was added and incubated at 37 °C. Absorbance was measured spectrophotometrically at 405 nm.
# Furthermore, the types of inhibition and inhibition constants (KI) were calculated from Lineweaver–Burk plots, providing detailed insights into the kinetic properties of these inhibitors.[62],[63]
# [4] = tested on: L929 fibroblast cell line; assay: MTT cell viability assay; assay type: cell-based; details: Mus musculus; L929, 24 h incubation, 5–100 μM
# Experimental: Healthy mouse fibroblast cell line (L929) was obtained from ATCC (American Type Culture Collection) and studied. Cells were mixed with 89% DMEM (Dulbecco’s modified Eagle’s medium; Gibco, Thermo Fisher Scientific), 10% FBS (Fetal Bovine Serum; Sigma-Aldrich) and 1% penicillin (Sigma-Aldrich) solutions. The cells in which the medium was added were allowed to grow by incubating at 37 °C in an environment containing 95% humidity and 5% CO2.[66],[67]
# The cytotoxic effects of all syntheses by MTT analysis on L929 cell line was investigated. 96-well plates were used for seeding cells. Approximately 1 × 10^4 cells were seeded in each well. Cells were allowed to adhere for 24 h and then the syntheses were applied at different concentrations (5–100 μM). After adding syntheses at different concentrations, the wells were incubated for 24 h. All wells without syntheses were used as controls. After the incubation, the wells were treated with MTT solution to determine metabolically active cells and incubated at 37 °C for 3 h. After the MTT interaction, the wells were emptied and DMSO solution was placed in them. The formazan crystals formed were dissolved with this solution and the number of viable cells in each well was determined by color change. The absorbance values were read at 540 nm with the help of a microplate and the values found were represented as mean ± standard deviation (±SD).[66],[67]
smiles,measurement,setting,value
"Nc1ccc2cc3ccccc3cc2c1 [2-AA, 2-Aminoanthracene, reference compound]",Average number of the positive wells,"[1]; TA 98, S9+, positive control",16
same,Average number of the positive wells,"[1]; TA 98, S9–, positive control",16
same,Average number of the positive wells,"[2]; S9+, positive control",16
same,Average number of the positive wells,"[2]; S9–, positive control",16
"CCNc1nnc(SCC(=O)N(Cc2ccc([N+](=O)[O-])cc2)c2ccc(Cl)cc2)s1 [6a, N-(4-Chlororophenyl)-2-[(5-(ethylamino)-1,3,4-thiadiazol-2-yl)thio]-N-(4-nitrobenzyl) Acetamide]",Ki,[3],11.9 ± 0.62 µM
same,IC50,[3],12.6 ± 0.75 µM
"CC(C)CNc1nnc(SCC(=O)N(Cc2ccc([N+](=O)[O-])cc2)c2ccc(Cl)cc2)s1 [6e, N-(4-Chlororophenyl)-2-[(5-(isobutylamino)-1,3,4-thiadiazol-2-yl)thio]-N-(4-nitrobenzyl) Acetamide]",Ki,[3],96.5 ± 6.15 µM
same,IC50,[3],99 ± 7.37 µM
"O=C(CSc1nnc(NC2CCCCC2)s1)N(Cc1ccc([N+](=O)[O-])cc1)c1ccc(Cl)cc1 [6f, N-(4-Chlororophenyl)-2-[(5-(cyclohexylamino)-1,3,4-thiadiazol-2-yl)thio]-N-(4-nitrobenzyl) Acetamide]",Ki,[3],342 ± 22.4 µM
same,IC50,[3],347 ± 18.3 µM
"O=C(CSc1nnc(Nc2ccccc2)s1)N(Cc1ccc([N+](=O)[O-])cc1)c1ccc(Cl)cc1 [6g, N-(4-Chlororophenyl)-2-[(5-(phenylamino)-1,3,4-thiadiazol-2-yl)thio]-N-(4-nitrobenzyl) Acetamide]",IC50,[4],99.5 ± 5.66 µM
same,Ki,[3],12 ± 0.97 µM
same,IC50,[3],12.2 ± 0.87 µM
"Cc1ccc(Nc2nnc(SCC(=O)N(Cc3ccc([N+](=O)[O-])cc3)c3ccc(Cl)cc3)s2)cc1 [6h, N-(4-Chlororophenyl)-2-[(5-(4-methylphenylamino)-1,3,4-thiadiazol-2-yl)thio]-N-(4-nitrobenzyl) Acetamide]",Average number of the positive wells,"[1]; TA 98, S9+, 4.7 μM",0
same,Average number of the positive wells,"[1]; TA 98, S9+, 9.4 μM",0
same,Average number of the positive wells,"[1]; TA 98, S9+, 18.75 μM",0
same,Average number of the positive wells,"[1]; TA 98, S9+, 37.5 μM",0
same,Average number of the positive wells,"[1]; TA 98, S9+, 75 μM",0
same,Average number of the positive wells,"[1]; TA 98, S9–, 4.7 μM",0
same,Average number of the positive wells,"[1]; TA 98, S9–, 9.4 μM",0
same,Average number of the positive wells,"[1]; TA 98, S9–, 18.75 μM",0
same,Average number of the positive wells,"[1]; TA 98, S9–, 37.5 μM",0
same,Average number of the positive wells,"[1]; TA 98, S9–, 75 μM",0
same,Ki,[3],4.48 ± 0.25 µM
same,IC50,[3],4.68 ± 0.23 µM
same,Average number of the positive wells,"[2]; S9+, 4.7 μM",0
same,Average number of the positive wells,"[2]; S9+, 9.4 μM",0
same,Average number of the positive wells,"[2]; S9+, 18.75 μM",0
same,Average number of the positive wells,"[2]; S9+, 37.5 μM",0
same,Average number of the positive wells,"[2]; S9+, 75 μM",8
same,Average number of the positive wells,"[2]; S9–, 4.7 μM",0
same,Average number of the positive wells,"[2]; S9–, 9.4 μM",0
same,Average number of the positive wells,"[2]; S9–, 18.75 μM",0
same,Average number of the positive wells,"[2]; S9–, 37.5 μM",0
same,Average number of the positive wells,"[2]; S9–, 75 μM",5
same,mutagenicity,"[2]; presence and absence of S9, 75 μM",mutagenicity was detected
"COCCNc1nnc(SCC(=O)N(Cc2ccc([N+](=O)[O-])cc2)c2ccc(F)cc2)s1 [6j, N-(4-Fluorophenyl)-2-[(5-((2-methoxyethyl)amino)-1,3,4-thiadiazol-2-yl)thio]-N-(4-nitrobenzyl) Acetamide]",Ki,[3],15.9 ± 0.92 µM
same,IC50,[3],16.5 ± 0.93 µM
"CCCNc1nnc(SCC(=O)N(Cc2ccc([N+](=O)[O-])cc2)c2ccc(F)cc2)s1 [6k, N-(4-Fluorophenyl)-2-[(5-(propylamino)-1,3,4-thiadiazol-2-yl)thio]-N-(4-nitrobenzyl) Acetamide]",IC50,[3],> 500 µM
"CC(C)Nc1nnc(SCC(=O)N(Cc2ccc([N+](=O)[O-])cc2)c2ccc(F)cc2)s1 [6l, N-(4-Fluorophenyl)-2-[(5-(isopropylamino)-1,3,4-thiadiazol-2-yl)thio]-N-(4-nitrobenzyl)acetamide]",IC50,[3],> 500 µM
"CCCCNc1nnc(SCC(=O)N(Cc2ccc([N+](=O)[O-])cc2)c2ccc(F)cc2)s1 [6m, N-(4-Fluorophenyl)-2-[(5-(butylamino)-1,3,4-thiadiazol-2-yl)thio]-N-(4-nitrobenzyl) Acetamide]",IC50,[3],> 500 µM
"O=C(CSc1nnc(NC2CCCCC2)s1)N(Cc1ccc([N+](=O)[O-])cc1)c1ccc(F)cc1 [6o, N-(4-Fluorophenyl)-2-[(5-(cyclohexylamino)-1,3,4-thiadiazol-2-yl)thio]-N-(4-nitrobenzyl)acetamide]",Average number of the positive wells,"[1]; TA 98, S9+, 3.125 nM",0
same,Average number of the positive wells,"[1]; TA 98, S9+, 6.25 nM",0
same,Average number of the positive wells,"[1]; TA 98, S9+, 12.5 nM",0
same,Average number of the positive wells,"[1]; TA 98, S9+, 25 nM",0
same,Average number of the positive wells,"[1]; TA 98, S9+, 50 nM",0
same,Average number of the positive wells,"[1]; TA 98, S9–, 3.125 nM",0
same,Average number of the positive wells,"[1]; TA 98, S9–, 6.25 nM",0
same,Average number of the positive wells,"[1]; TA 98, S9–, 12.5 nM",0
same,Average number of the positive wells,"[1]; TA 98, S9–, 25 nM",0
same,Average number of the positive wells,"[1]; TA 98, S9–, 50 nM",0
same,Ki,[3],12.5 ± 1.08 µM
same,IC50,[3],34.6 ± 1.78 µM
same,Average number of the positive wells,"[2]; S9+, 3.125 nM",0
same,Average number of the positive wells,"[2]; S9+, 6.25 nM",0
same,Average number of the positive wells,"[2]; S9+, 12.5 nM",0
same,Average number of the positive wells,"[2]; S9+, 25 nM",0
same,Average number of the positive wells,"[2]; S9+, 50 nM",15.3
same,Average number of the positive wells,"[2]; S9–, 3.125 nM",0
same,Average number of the positive wells,"[2]; S9–, 6.25 nM",0
same,Average number of the positive wells,"[2]; S9–, 12.5 nM",0
same,Average number of the positive wells,"[2]; S9–, 25 nM",0
same,Average number of the positive wells,"[2]; S9–, 50 nM",15.3
same,mutagenicity,"[2]; presence and absence of S9, 50 nM",mutagenicity was detected
"O=C(CSc1nnc(Nc2ccccc2)s1)N(Cc1ccc([N+](=O)[O-])cc1)c1ccc(F)cc1 [6p, N-(4-Fluorophenyl)-2-[(5-(phenylamino)-1,3,4-thiadiazol-2-yl)thio]-N-(4-nitrobenzyl)acetamide]",Ki,[3],8.38 ± 0.12 µM
same,IC50,[3],8.25 ± 0.56 µM
"Cc1ccc(Nc2nnc(SCC(=O)N(Cc3ccc([N+](=O)[O-])cc3)c3ccc(F)cc3)s2)cc1 [6q, N-(4-Fluorophenyl)-2-[(5-(4-methylphenylamino)-1,3,4-thiadiazol-2-yl)thio]-N-(4-nitrobenzyl) Acetamide]",Ki,[3],7.86 ± 0.62 µM
same,IC50,[3],8.15 ± 0.48 µM
